# From patent publication US20220168328A1, “METHODS AND COMPOSITIONS FOR TREATING EUKARYOTIC INFECTIONS VIA ALTERING AGGREGATION DYNAMICS OF RAPTOR/KOG1” (ARIZONA BOARD OF REGENTS ON BEHALF OF THE UNIVERSITY OF …, priority 2014, published 2022)
# Experiments:
# ringworm = experiment: Patient with ringworm treated with topical AICAR (Example 2); type: in vivo, human; conditions: child, 3 g AICAR
# Description: A child (height of 165 cm, weight of 55 kg) presents to their primary care physician with a red and itchy rash on their forearm. The rash is in a circular pattern. The physician diagnoses the patient with ringworm. The physician administers a dose of a topical pharmaceutical containing 3 g of AICAR, an agent that activates TORC1 aggregate formation.
# Kog1 = Kog1 foci (Kog1 bodies) resolution in WT cells after glucose starvation; type: cell-based, budding yeast; conditions: cycloheximide (CHX) alone, without glucose repletion
# esophageal candidiasis = experiment: Patient with esophageal candidiasis treated with oral phenformin (Example 1); type: in vivo, human; conditions: person, 200 mg phenformin
# Protocol: The physician notes the presence of white plaques on the patient's tongue. The physician diagnoses esophageal candidiasis. The physician administers an oral pharmaceutical containing 200 mg of phenformin, an agent that activates TORC1 aggregate formation.
# TORC1 = experiment: DNA microarray measurement of TORC1 pathway output (gene expression) with and without rapamycin; type: cell-based, S. cerevisiae; conditions: salt stress, 0.4M KCl; hog1Δ versus wild-type strain
# Protocol: Previous studies of TOR pathway signaling in stress have been limited to measuring phosphorylation of a single substrate, Sch9. As a result it was not clear whether stress signals inhibit TORC1 activity directly or simply act on one or two TORC1 targets proteins. To help distinguish between these possibilities, the complete output of TORC1 pathway in osmotic stress was measured using DNA microarrays. To do this, the cellular response was monitored with and without the potent TORC1 inhibitor rapamycin in 0.4M KCl and three control conditions: amino acid starvation, nitrogen starvation and log growth conditions.
# In osmotic stress, Hog1/p38, the terminal kinase in the HOG pathway, is known to regulate many aspects of the stress response including transcription, chromatin remodeling, cell cycle check-points, and ion and glycerol channel regulation. […]
# (a) DNA microarray data comparing the gene expression program activated by KCl stress and the TORC1 inhibitor rapamycin. […] A phosphorylation-induced shift in the electrophoretic mobility of Sch9-3HA was measured by performing a western blot to a SDS-PAGE gel loaded with extract from cells collected before and after treatment with 0.4M KCl, using an anti-HA antibody. […] The experiment described in (b) was carried out in triplicate in wild-type and hog1A strains and the fraction of protein in the phosphorylated state was quantified using densitometry. […]
smiles,measurement,setting,value
NC(=O)c1ncn([C@@H]2O[C@H](CO)[C@@H](O)[C@H]2O)c1N [AICAR],outcome by four days of treatment,ringworm,the rash is gone
C[C@@H]1C[C@@H]([C@H](O)CC2CC(=O)NC(=O)C2)C(=O)[C@@H](C)C1 [cycloheximide],disaggregation of Kog1,Kog1,does not trigger disaggregation of Kog1
[H]/N=C(/N)N/C(=N/[H])NCCc1ccccc1 [phenformin],signs of improvement after one day of treatment,esophageal candidiasis; one day,absence of white plaques on the tongue and no difficulty swallowing
same,outcome by two days of treatment,esophageal candidiasis; two days,sore throat is gone
CO[C@H]1C[C@@H]2CC[C@@H](C)[C@@](O)(O2)C(=O)C(=O)N2CCCC[C@H]2C(=O)O[C@H]([C@H](C)C[C@@H]2CC[C@@H](O)[C@H](OC)C2)CC(=O)[C@H](C)/C=C(\C)[C@@H](O)[C@@H](OC)C(=O)[C@H](C)C[C@H](C)/C=C/C=C/C=C/1C [rapamycin],more repression by rapamycin in hog1Δ than wt,TORC1,4 fold
